pIC50, pKd: −log10 of the molar value. In brackets after ≈: the same amount, converted by molar mass.
What was measured:
[1] = target: Epidermal growth factor receptor (Mus musculus, UniProt Q01279); assay: Displacement of probe N-(4-(4-(3-((4-((3-chloro-4-fluorophenyl)amino)-7-methoxyquinazolin-6-yl)oxy)propyl)piperazin-1-yl)-4-oxobutyl)-3-(5,5-difluoro-7,9-dimethyl-5H-5l4,6l4-dipyrrolo[1,2-c:2',1'-f][1,3,2]diazaborinin-3-yl)propenamide from C-terminal His-tagged wild type mouse EGFR incubated for 30 mins by probe displacement based TR-FRET assay
[2] = Chromatographic hydrophobicity index, log D of the compound by HPLC analysis; type: physicochemical
[3] = Aqueous solubility of compound at pH 7.4; type: physicochemical
[4] = target: Cyclin-dependent kinase 2 (Homo sapiens, UniProt P24941); assay: Binding affinity to human Avi-tagged CDK2 expressed in Escherichia coli BL21 DE3 assessed as dissociation constant by Surface plasmon resonance analysis

Chain of Epidermal growth factor receptor (Q01279 whole entry): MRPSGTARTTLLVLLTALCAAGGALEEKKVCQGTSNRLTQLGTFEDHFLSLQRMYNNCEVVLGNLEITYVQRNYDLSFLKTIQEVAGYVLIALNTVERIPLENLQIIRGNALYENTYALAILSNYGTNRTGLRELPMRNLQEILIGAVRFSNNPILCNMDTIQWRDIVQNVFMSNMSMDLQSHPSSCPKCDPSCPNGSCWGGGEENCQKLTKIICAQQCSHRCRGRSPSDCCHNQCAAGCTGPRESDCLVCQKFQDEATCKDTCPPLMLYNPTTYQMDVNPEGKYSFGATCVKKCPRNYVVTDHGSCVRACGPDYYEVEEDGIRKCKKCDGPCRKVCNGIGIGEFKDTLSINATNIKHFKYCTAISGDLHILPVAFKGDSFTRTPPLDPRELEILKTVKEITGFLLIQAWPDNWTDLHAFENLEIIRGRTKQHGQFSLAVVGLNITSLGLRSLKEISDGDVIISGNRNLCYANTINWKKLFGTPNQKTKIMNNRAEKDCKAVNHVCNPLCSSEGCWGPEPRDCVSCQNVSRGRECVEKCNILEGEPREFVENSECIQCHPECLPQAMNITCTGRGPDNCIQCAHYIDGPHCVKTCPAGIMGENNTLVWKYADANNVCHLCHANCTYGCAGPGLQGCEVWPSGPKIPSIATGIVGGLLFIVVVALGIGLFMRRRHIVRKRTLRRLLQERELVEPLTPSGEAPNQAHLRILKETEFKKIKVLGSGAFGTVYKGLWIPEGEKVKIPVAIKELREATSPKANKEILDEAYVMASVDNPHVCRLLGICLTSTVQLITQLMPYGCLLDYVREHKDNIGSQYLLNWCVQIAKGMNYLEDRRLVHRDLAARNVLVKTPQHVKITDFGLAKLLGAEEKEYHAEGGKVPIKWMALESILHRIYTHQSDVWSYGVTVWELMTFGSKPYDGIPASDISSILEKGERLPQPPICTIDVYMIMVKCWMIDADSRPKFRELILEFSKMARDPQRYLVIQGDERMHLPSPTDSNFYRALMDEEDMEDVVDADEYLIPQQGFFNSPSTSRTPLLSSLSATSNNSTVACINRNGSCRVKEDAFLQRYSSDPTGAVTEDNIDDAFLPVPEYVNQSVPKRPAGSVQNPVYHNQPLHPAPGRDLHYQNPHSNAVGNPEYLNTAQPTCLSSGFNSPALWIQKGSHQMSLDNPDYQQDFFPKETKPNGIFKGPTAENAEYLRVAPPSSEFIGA

pIC50 [1] | chromatographic logD [2] | solubility [3] [µM] | pKd [4] | SMILES
3.70 | 2.4 | 85 (≈ 17.4 µg/mL) | 3.00 | O=C(Nc1ccccc1)NC1CCCC1
< 3.00 | 2.8 | 98 (≈ 21.4 µg/mL) | 2.70 | CN(C(=O)Nc1ccccc1)C1CCCC1
3.40 | 2.4 | 93 (≈ 19.1 µg/mL) | 3.40 | O=C(Nc1ccccn1)NC1CCCC1
3.90 | 3.6 | 77 (≈ 17.9 µg/mL) | 2.50 | CN(C(=O)N(C)C1CCCC1)c1ccccc1
< 3.00 | 2.2 | 114 (≈ 26.6 µg/mL) | 1.80 | CN(C(=O)N(C)C1CCCC1)c1ccccn1
< 3.00 | 3 | 87 (≈ 19.1 µg/mL) | 2.80 | CN(C(=O)NC1CCCC1)c1ccccn1
3.10 | 2.1 | 102 (≈ 22.4 µg/mL) | 2.60 | CN(C(=O)Nc1ccccn1)C1CCCC1
4.00 | 2.7 | 104 (≈ 22.7 µg/mL) | 2.10 | CN(C(=O)NC1CCCC1)c1ccccc1
